Test results as given in PMC5656594 (Scientific Reports, 2017).
Values joined by “and” are separate entries in the source; they are usually repeats but may differ in a detail not shown here. Equal entries are not always repeated.

What was measured:
E221A IN^PFV-DNA complex = target: T1, E221A IN^PFV-DNA complex (Human spumaretrovirus, UniProt P14350, E972A/G968S/S969G); assay: Fluorescence enhancement DTG-binding assay, E221A catalytic mutant; parameters: species or system prototype foamy virus (PFV); conditions: 1 mM Mg2+
T1 construct: The pET-IN-PFV plasmid containing the full-length IN gene was used for mutagenesis; His; made in house; host or cells: E. coli BL21-CodonPlus (DE3)-RIPL
Description: (§1) The fluorescence intensity was monitored as a function of (IN + DNA) and plotted as a function of the binary IN-DNA complex concentration (measured as explained in Fig. 2E legend). […] (B) The percentage of ternary complexes was calculated using DTG fluorescence enhancement. […] The graphs in panels A-B show representative data of three independent experiments. […] "DTG" is taken from the y-axis title of the same panel.
(§2) To note, Mg^2+ is dispensable for the overall DNA-binding step of IN[32],[43]–[45] and thus, the loss of Mg^2+ chelation is not contradictory with results showing that catalytic mutants bind equally well to DNA and in a similar manner than wt IN (Supplementary Fig. S6). However, G187R cannot be considered as a catalytic mutant since it sustains a significant ST activity although weak (≈10% of the wt activity; Fig. 6).
(§3) Fluorescence excitation and emission spectra of INSTIs were recorded on a Eclipse (Varian) spectrofluorimeter equipped with two polarizers for anisotropy measurements and a thermostated cell holder, using 80 µl solutions placed in micro cells (Hellma). […] The steady-state fluorescence anisotropy was calculated using: r = (IVV–G x IVH)/(IVV + 2GxIVH) where IVV and IVH correspond to vertical and horizontal components, respectively, when the sample is excited with vertically polarized light. […]

G187R IN^PFV-DNA complex = target: T2, G187R IN^PFV-DNA complex (Human spumaretrovirus, UniProt P14350, G938R/G968S/S969G); assay: DTG fluorescence anisotropy binding assay, G187R mutant; parameters: species or system prototype foamy virus (PFV); conditions: 10 mM Mg2+, DTG 0.6 μM, [IN]=[DNA]=2.4 μM
T2 construct: The pET-IN-PFV plasmid containing the full-length IN gene was used for mutagenesis; His; made in house; host or cells: E. coli BL21-CodonPlus (DE3)-RIPL
Description: as §1, §2, §3

IN = conditions: INSTIs; cited from earlier work
[1] = DTG-Mg2+ interaction, titration of DTG fluorescence emission enhancement as a function of [Mg2+]; format: physicochemical; conditions: DTG 1 μM, λex 345 nm, buffer A, hyperbolic titration curve; read-out: Kd of the DTG-Mg^2+ interaction
Excerpt: Figure 1 Fluorescence properties of INSTIs in solution and influence of divalent cations. […] Corresponding excitation and emission spectra are shown in Supplementary Fig. S1. Excitation and emission slits: Δλex = Δλem = 5 nm (PMT = 750 V). The fluorescence enhancement factor corresponds to the drug fluorescence emission intensity for a given Mg^2+ concentration normalized by the intensity in the absence of Mg^2+. […] The emission intensity was reported as a function of [Mg^2+] (inset). […] The bar graphs in panels A and D show mean ± SD values from three independent experiments. […] Only [Mg2+] and λex: 345 nm appear in the panel, so the substance is left empty.
Furthermore, both drugs display a Mg^2+ dependence of fluorescence intensity, however with some differences. A slight increase of EVG fluorescence intensity was observed upon addition of Mg^2+ (a 3-fold increase for the two excitation modes from 0 to 10 mM Mg^2+; Fig. 1B). […] This Mg^2+-dependent enhancement is related to an increase of the fluorescence quantum yield since no Mg^2+-dependent change in the absorption spectrum was observed (Supplementary Fig. S2A).
(§4) Fluorescence excitation and emission spectra of INSTIs were recorded on a Eclipse (Varian) spectrofluorimeter equipped with two polarizers for anisotropy measurements and a thermostated cell holder, using 80 µl solutions placed in micro cells (Hellma). […]

DNA alone (PFV^CAAT) = assay: DTG fluorescence enhancement in the presence of DNA alone; format: binding, prototype foamy virus (PFV); conditions: 1 mM Mg2+
Description: (§5) The three other conditions (i→iii) led to superimposable spectra. To note, the presence of IN/DNA complexes accounts for light scattering on the blue side of the spectrum.
(§6) All experiments were performed in the presence of 1 mM Mg^2+ (see Supplementary Fig. S4 for [Mg^2+] = 10 mM). λex = 345 nm and PMT = 980 V (Δλex = Δλem = 5 nm). […] Contributions of Raman and Rayleigh scattering were eliminated in the inset spectrum: (viii) = (iv)–(vii) where (vii) represents the proper spectrum of Mg^2+-DTG in the context of the binary IN-DNA complex. […] [Mg^2+] = 1 mM. Inset: fluorescence intensity (375–385 nm) as a function of (IN + DNA). The arrows indicate the intensity level after addition of 500 mM NaCl. Emission spectra are representative of 3 independent experiments for each condition of (IN + DNA). […] (E) Measurement of the binary IN-DNA complex formation. The formation of binary complexes was performed by monitoring the fluorescence anisotropy (r) of DNA (Fl-PFV^CAAT) under similar experimental conditions of the DTG-binding assay (panels C-D). Top, varying stoichiometric concentrations of IN and DNA were mixed and the r parameter was monitored. […]
as §4

S217K IN^PFV-DNA complex = target: T3, S217K IN^PFV-DNA complex (Human spumaretrovirus, UniProt P14350, G968K/S969G); assay: DTG fluorescence anisotropy binding assay, S217K mutant; parameters: species or system prototype foamy virus (PFV); conditions: 10 mM Mg2+, DTG 0.6 μM, [IN]=[DNA]=2.4 μM
T3 construct: The pET-IN-PFV plasmid containing the full-length IN gene was used for mutagenesis; His; made in house; host or cells: E. coli BL21-CodonPlus (DE3)-RIPL
Description: as §1, §2, §3

IN alone (IN^PFV) = target: T4, IN alone (IN^PFV) (Human spumaretrovirus, UniProt P14350); assay: DTG fluorescence enhancement in the presence of IN alone; format: binding, prototype foamy virus (PFV); conditions: 1 mM Mg2+
T4 construct: The full-length wt IN^PFV, the three single mutants of the catalytic triad; His; made in house; host or cells: E. coli BL21-CodonPlus (DE3)-RIPL
Description: as §5, §6, §4

D128N IN^PFV-DNA complex = target: T5, D128N IN^PFV-DNA complex (Human spumaretrovirus, UniProt P14350, D879N/G968S/S969G); assay: Fluorescence enhancement DTG-binding assay, D128N catalytic mutant; parameters: species or system prototype foamy virus (PFV); conditions: 1 mM Mg2+
T5 construct: The pET-IN-PFV plasmid containing the full-length IN gene was used for mutagenesis; His; made in house; host or cells: E. coli BL21-CodonPlus (DE3)-RIPL
Description: as §1, §2, §3

Question: For C[C@@H]1CCO[C@H]2Cn3cc(C(=O)NCc4ccc(F)cc4F)c(=O)c(O)c3C(=O)N12 [DTG, dolutegravir], which “DTG binding to E221A catalytic mutant” value (E221A IN^PFV-DNA complex) is on record?
Answer: loss of DTG-binding

Question: And the “DTG binding to G187R by DTG anisotropy” value (G187R IN^PFV-DNA complex)?
Answer: DTG-binding defects

Question: What about the IC50 values (IN) of the same molecule?
Answer: low-nanomolar range

Question: What about the Kd [1] of the same molecule?
Answer: ~1200 µM and 1000 to 2000 µM

Question: And the “DTG binding to DNA alone” value (DNA alone (PFV^CAAT))?
Answer: no DTG binding

Question: And the “DTG binding to S217K by DTG anisotropy” value (S217K IN^PFV-DNA complex)?
Answer: DTG-binding defects

Question: What about the “DTG binding to IN alone” value (IN alone (IN^PFV)) of the same molecule?
Answer: no DTG binding

Question: What about the “DTG binding to D128N catalytic mutant” value (D128N IN^PFV-DNA complex) of the same molecule?
Answer: loss of DTG-binding
